The results in this text go back to the supplement of paper PMC10627819.

Holding throughout (assay): Bliss interaction score (quartile over a dose matrix) (fitness difference); higher = more antagonism (negative = synergy)
The subject of test [1] is S. aureus DSM 20231. In outline: (§1)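 Growth was read as OD595 when cultures entered stationary phase, and each value was divided by the plate's robust no-drug mean and capped at 1. This normalised ratio is the fitness value, and fitness for each single drug came from the combination data. The Bliss score subtracts the expected fitness, taken as the product, from the observed fitness and is given as quartiles across technical, biological and donor/recipient replicates.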

For test [2], the system named is S. aureus Newman. The gist of the method:
as §1

In test [3] the test system is S. pneumoniae D39V. In outline: as §1
Test [4] has as its system B. subtilis 168. In outline:
as §1

Molecules are shown by their SMILES.
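Also: first quartile when negative (synergy) and third quartile when positive (antagonism).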

For `CCC[C@@H]1C[C@@H](C(=O)N[C@@H]([C@H]2O[C@H](SC)[C@H](O)[C@@H](O)[C@H]2O)[C@H](C)Cl)N(C)C1` [Clindamycin] + CO[C@@]12[C@H](COC(N)=O)C3=C(C(=O)C(C)=C(N)C3=O)N1C[C@@H]1N[C@@H]12 [MitomycinC], the Bliss interaction score in test [1] was -0.0349; in test [2], 0.0745; in test [3], 0.0747; in test [4], 0.0747.

For `CCC[C@@H]1C[C@@H](C(=O)N[C@@H]([C@H]2O[C@H](SC)[C@H](O)[C@@H](O)[C@H]2O)[C@H](C)Cl)N(C)C1` [Clindamycin] + N[C@@H]1CONC1=O [CycloserineD], the Bliss interaction score was -0.101 in test [1], 0.0633 in test [2], 0.165 in test [3] and 0.0351 in test [4].

On to `CCC[C@@H]1C[C@@H](C(=O)N[C@@H]([C@H]2O[C@H](SC)[C@H](O)[C@@H](O)[C@H]2O)[C@H](C)Cl)N(C)C1` [Clindamycin] + Oc1cc(Cl)ccc1Oc1ccc(Cl)cc1Cl [Triclosan], for which the Bliss interaction score in test [1] is -0.0305; in test [2] it was 0.0225; in test [3], -0.101; in test [4], 0.065.

With `N[C@@H]1CONC1=O` [CycloserineD] + C/C(=C\C(=O)OCCCCCCCCC(=O)O)C[C@@H]1OC[C@H](C[C@@H]2O[C@H]2[C@@H](C)[C@H](C)O)[C@@H](O)[C@H]1O [Pseudomonic acid], the Bliss interaction score in test [1] is 0.009; in test [2], -0.0141; in test [3], 0.136; in test [4] it was -0.0491.

With `N[C@@H]1CONC1=O` [CycloserineD] + CC1(C)S[C@@H]2[C@H](NC(=O)Cc3ccccc3)C(=O)N2[C@H]1C(=O)O [PenicillinG], the Bliss interaction score in test [1] is -0.0754; in test [2], 0.0553; in test [3], -0.221; in test [4], 0.116.

With `N[C@@H]1CONC1=O` [CycloserineD] + CC1=C\[C@@H](O)CC(=O)Cc2nc(co2)C(=O)N2CCC=C2C(=O)O[C@H](C(C)C)[C@H](C)/C=C/C(=O)NC\C=C\1 [Virginiamycin M1], the Bliss interaction score in test [1] was 0.101; in test [2], 0.0587; in test [3], -0.0528; in test [4], -0.0364.

`N[C@@H]1CONC1=O` [CycloserineD] + CC(=O)NC[C@H]1CN(c2ccc(N3CCOCC3)c(F)c2)C(=O)O1 [Linezolid]: the Bliss interaction score in test [1] was -0.125; in test [2], 0.06; in test [3] it was 0.146; in test [4], -0.0639.

Consider `N[C@@H]1CONC1=O` [CycloserineD] + CC(=O)O[C@H]1C[C@@]2(C)[C@@H](C[C@@H](O)[C@H]3[C@@]4(C)CC[C@@H](O)[C@@H](C)[C@@H]4CC[C@@]32C)/C1=C(\CCC=C(C)C)C(=O)O [Fusidic acid], for which the Bliss interaction score was 0.0576 in test [1], -0.0418 in test [2], 0.211 in test [3] and 0.0616 in test [4].

As for `N[C@@H]1CONC1=O` [CycloserineD] + CC(C1CCC(C(O1)OC2C(CC(C(C2O)OC3C(C(C(CO3)(C)O)NC)O)N)N)N)NC [Gentamicin], the Bliss interaction score in test [1] (main component drawn) was -0.125; in test [2] (main component drawn), 0.0356; in test [3] (main component drawn), -0.0744; in test [4] (main component drawn), -0.0482.

Take `N[C@@H]1CONC1=O` [CycloserineD] + CCC(C)C1C(=O)NC(=C)C(=O)NC(C(=O)NC(CSCC(C(=O)N1)NC(=O)/C(=C/C)/NC(=O)C(C(C)CC)N)C(=O)NC2C(SCC(NC(=O)CNC(=O)C3CCCN3C2=O)C(=O)NC(CCCCN)C(=O)NC4C(SCC(NC(=O)CNC(=O)C(NC(=O)C(NC(=O)C(NC(=O)CNC4=O)C)CC(C)C)CCSC)C(=O)NC(CC(=O)N)C(=O)NC(CCSC)C(=O)NC(CCCCN)C(=O)NC5C(SCC6C(=O)NC(C(=O)NC(CSC(C(C(=O)N6)NC(=O)C(NC5=O)C)C)C(=O)NC(CO)C(=O)NC(C(C)CC)C(=O)NC(CC7=CN=CN7)C(=O)NC(C(C)C)C(=O)NC(=C)C(=O)NC(CCCCN)C(=O)O)CC8=CN=CN8)C)C)C)CC(C)C [Nisin]: the Bliss interaction score in test [1] (main component drawn) was 0.193; in test [2] (main component drawn), 0.0401; in test [3] (main component drawn), 0.0554; in test [4] (main component drawn) it was 0.0525.

As to `N[C@@H]1CONC1=O` [CycloserineD] + CCCCCCCCCC(=O)N[C@@H]1[C@H]([C@@H]([C@H](O[C@H]1OC2=C3C=C4C=C2OC5=C(C=C(C=C5)[C@H]([C@H]6C(=O)N[C@@H](C7=C(C(=CC(=C7)O)OC8[C@H]([C@H]([C@@H]([C@H](O8)CO)O)O)O)C9=C(C=CC(=C9)[C@H](C(=O)N6)NC(=O)[C@@H]4NC(=O)[C@@H]1C2=CC(=CC(=C2)OC2=C(C=CC(=C2)[C@H](C(=O)N[C@H](CC2=CC(=C(O3)C=C2)Cl)C(=O)N1)N)O)O)O)C(=O)O)O[C@H]1[C@@H]([C@H]([C@@H]([C@H](O1)CO)O)O)NC(=O)C)Cl)CO)O)O [Teicoplanin], the Bliss interaction score in test [1] (main component drawn) is 0.0399; in test [2] (main component drawn), 0.054; in test [3] (main component drawn), -0.0849; in test [4] (main component drawn) it was 0.0976.

As to `N[C@@H]1CONC1=O` [CycloserineD] + CCC[C@@H]1C[C@@H](C(=O)N[C@@H]([C@H]2O[C@H](SC)[C@H](O)[C@@H](O)[C@H]2O)[C@@H](C)O)N(C)C1 [Lincomycin], the Bliss interaction score in test [1] is -0.146; in test [2] it was 0.102; in test [3], 0.153; in test [4], -0.0375.

For the compound `N[C@@H]1CONC1=O` [CycloserineD] + CCN(CC)CCOC(=O)c1ccc(N)cc1 [Procaine], the Bliss interaction score was 0.0639 in test [1], 0.0381 in test [2], -0.0723 in test [3] and -0.0484 in test [4].
